Assay: wn = mass fraction of the nth substance listed
Details: for surface tension liquid-gas: Maximal bubble pressure; for mass density: 100 kPa, Liquid, Vibrating tube method

CCCCn1cc[n+](C)c1.N[C@@H](CO)C(=O)[O-] [1-butyl-3-methylimidazolium L-serinate] + O
Details | mass density, w2 = 0.00489 [kg/m3] | mass density, w2 = 0.00632 [kg/m3] | mass density, w2 = 0.00783 [kg/m3] | mass density, w2 = 0.00933 [kg/m3] | mass density, w2 = 0.01094 [kg/m3] | surface tension liquid-gas, w2 = 0.00706 [mN/m] | surface tension liquid-gas, w2 = 0.00859 [mN/m] | surface tension liquid-gas, w2 = 0.01019 [mN/m] | surface tension liquid-gas, w2 = 0.01171 [mN/m] | surface tension liquid-gas, w2 = 0.01331 [mN/m]
308.15 K | 1149.77 | 1149.82 | 1149.86 | 1149.91 | 1149.97 | – | – | 46.4 | 46.6 | 46.9
313.15 K | 1146.61 | 1146.67 | 1146.72 | 1146.76 | 1146.82 | 45.7 | 45.9 | 46.1 | 46.3 | 46.6
318.15 K | 1143.46 | 1143.52 | 1143.56 | 1143.61 | 1143.65 | 45.4 | 45.6 | 45.8 | 46 | 46.3
323.15 K | 1140.24 | 1140.3 | 1140.34 | 1140.39 | 1140.45 | 45.2 | 45.4 | 45.6 | 45.8 | 46
328.15 K | 1137.09 | 1137.16 | 1137.21 | 1137.27 | 1137.32 | 44.9 | 45.1 | 45.3 | 45.5 | 45.7
333.15 K | 1133.97 | 1134.03 | 1134.08 | 1134.13 | 1134.18 | 44.7 | 44.9 | 45.1 | 45.3 | 45.5
338.15 K | 1130.83 | 1130.9 | 1130.95 | 1131.01 | 1131.07 | 44.5 | 44.7 | 44.9 | 45.1 | 45.4

From the NIST ThermoML archive (doi:10.1016/j.jct.2015.04.029)
